Each structure is given as a SMILES string. Like-named read-outs stand apart in the source and are kept apart here.

We go through 23 molecules from patent US8470839B2, “N1-acyl-5-fluoropyrimidinone derivatives” (Dow Agrosciences, LLC., priority 2009, dated 2013).

The test system of data set [1] is Mycosphaerella graminicola; Anamorph: Septoria tritici; Bayer Code SEPTTR. In words: Evaluation of fungicidal activity: leaf blotch of wheat, greenhouse wheat plants inoculated with Septoria tritici. The format is in vivo. The conditions noted are these: Zymoseptoria tritici. The method, then:
Evaluation of Fungicidal Activity: Leaf Blotch of Wheat (Mycosphaerella graminicola; Anamorph: Septoria tritici; Bayer Code […]) Wheat plants (variety Yuma) were grown from seed in a greenhouse in 50% mineral soil/50% soil-less Metro mix until the first leaf was fully emerged, with 7-10 seedlings per pot. These plants were inoculated with an aqueous spore suspension of Septoria tritici either prior to or after fungicide treatments. After inoculation the plants were kept in 100% relative humidity (one day in a dark dew chamber followed by two to three days in a lighted dew chamber) to permit spores to germinate and infect the leaf. The plants were then transferred to a greenhouse for disease to develop. The following table presents the activity of typical compounds of the present disclosure when evaluated in these experiments. The effectiveness of the test compounds in controlling disease was determined by assessing the severity of disease on treated plants, then converting the severity to percent control based on the level of disease on untreated, inoculated plants. In each case of Table II the rating scale is as follows: […]

Setting [2] is: 24 h, One-Day Protectant (1DP), 100 ppm, wheat leaf blotch, percent control vs untreated inoculated plants, read-out: SEPTTR 100 PPM 1DP (% Disease Control rating).
Where [3] appears, read: 72 h, Three-Day Curative (3DC), 100 ppm, wheat leaf blotch, percent control vs untreated inoculated plants, read-out: SEPTTR 100 PPM 3DC (% Disease Control rating).

As usually defined, the melting point is the temperature of the solid-liquid transition. Consider `CC(=O)n1cc(F)c(/N=C/N(C)C)nc1=O` [Compound 1, N′-(1-acetyl-5-fluoro-2-oxo-1,2-dihydropyrimidin-4-yl)-N,N-dimethylformamidine], for which the melting point was 125 to 130 °C (dec.). The pest or weed control at 100 ppm in data set [1] (setting [2]) was 76 to 100%. The pest or weed control at 100 ppm in data set [1] (setting [3]) was 76 to 100%.

`Cc1cccc(C)c1C(=O)n1cc(F)c(/N=C/N(C)C)nc1=O` [Compound 2, N′-[1-(2,6-dimethylbenzoyl)-5-fluoro-2-oxo-1,2-dihydro-pyrimidin-4-yl]-N,N-dimethylformamidine] had a melting point of 120 to 150 °C. In addition, the pest or weed control at 100 ppm in data set [1] (setting [2]) was 76 to 100%. In data set [1] (setting [3]), the pest or weed control at 100 ppm lay in the range of 76 to 100%.

As to `CN(C)/C=N/c1nc(=O)n(C(=O)c2c(Cl)cccc2Cl)cc1F` [Compound 3, N′-[1-(2,6-dichlorobenzoyl)-5-fluoro-2-oxo-1,2-dihydro-pyrimidin-4-yl]-N,N-dimethylformamidine], the melting point lay in the range of 185 to 187 °C. Moreover, the pest or weed control at 100 ppm in data set [1] (24 h, read-out: SEPTTR 100 PPM 1DP (% Disease Control rating)) was in the range of 51 to 75%. In data set [1] (72 h, read-out: SEPTTR 100 PPM 3DC (% Disease Control rating)), the pest or weed control at 100 ppm is 76 to 100%.

Take `CN(C)/C=N/c1nc(=O)n(C(=O)c2ccc(Cl)cc2Cl)cc1F` [Compound 4]: the pest or weed control at 100 ppm in data set [1] (setting [2]) and in data set [1] (setting [3]) was 76 to 100% in each case.

On to `Cc1ccc(C(=O)n2cc(F)c(/N=C/N(C)C)nc2=O)c(C)c1` [Compound 5], for which the pest or weed control at 100 ppm in data set [1] (setting [2]) and in data set [1] (setting [3]) was 76 to 100% throughout.

As for `CC(C)=CC(=O)n1cc(F)c(/N=C/N(C)C)nc1=O` [Compound 6], the melting point is 128 to 130 °C. Further, in data set [1] (setting [2]), the pest or weed control at 100 ppm is 76 to 100%. Also, the pest or weed control at 100 ppm in data set [1] (setting [3]) lay in the range of 76 to 100%.

`CN(C)/C=N/c1nc(=O)n(C(=O)c2ccccc2)cc1F` [Compound 7] gave a melting point of 137.3 to 139 °C. For the same molecule, the pest or weed control at 100 ppm in data set [1] (setting [2]) fell in the range of 76 to 100%. For the same molecule, the pest or weed control at 100 ppm in data set [1] (setting [3]) lay in the range of 76 to 100%.

Regarding `COc1ccc(C(=O)n2cc(F)c(/N=C/N(C)C)nc2=O)cc1` [Compound 8], the melting point fell in the range of 126.2 to 128.3 °C. Moreover, the pest or weed control at 100 ppm in data set [1] (setting [2]) was 76 to 100%. Further, the pest or weed control at 100 ppm in data set [1] (setting [3]) was 76 to 100%.

For `Cc1ccc(C(=O)n2cc(F)c(/N=C/N(C)C)nc2=O)cc1` [Compound 9], the melting point fell in the range of 128.8 to 130.5 °C. The pest or weed control at 100 ppm in data set [1] (setting [2]) was in the range of 76 to 100%. Moreover, in data set [1] (setting [3]), the pest or weed control at 100 ppm lay within 76 to 100%.

The molecule `CN(C)/C=N/c1nc(=O)n(C(=O)c2cccs2)cc1F` [Compound 10] came in with a melting point of 154.8 to 156.5 °C. In addition, the pest or weed control at 100 ppm in data set [1] (setting [2]) is 76 to 100%. Moreover, the pest or weed control at 100 ppm in data set [1] (setting [3]) was in the range of 76 to 100%.

On to `CN(C)/C=N/c1nc(=O)n(C(=O)c2ccc(F)c(F)c2)cc1F` [Compound 11], for which the melting point lay in the range of 130 to 132 °C. The pest or weed control at 100 ppm in data set [1] (setting [2]) lay in the range of 76 to 100%. In data set [1] (setting [3]), the pest or weed control at 100 ppm fell in the range of 76 to 100%.

As for `CN(C)/C=N/c1nc(=O)n(C(=O)c2cccc(Cl)c2)cc1F` [Compound 12], the melting point is 95.3 to 97.7 °C.

Regarding `Nc1nc(=O)n(C(=O)c2cc(F)cc(F)c2)cc1F` [Compound 13, 4-amino-1-(3,5-difluorobenzoyl)-5-fluoro-1H-pyrimidin-2-one], the pest or weed control at 100 ppm in data set [1] (setting [2]) and in data set [1] (setting [3]) was 76 to 100% throughout.

`Nc1nc(=O)n(C(=O)c2ccccc2)cc1F` [Compound 14] displayed a melting point of 213.2 to 215.3 °C. Further, the pest or weed control at 100 ppm in data set [1] (setting [2]) lay within 76 to 100%. The pest or weed control at 100 ppm in data set [1] (setting [3]) was in the range of 76 to 100%.

`COc1ccc(C(=O)n2cc(F)c(N)nc2=O)cc1` [Compound 15] registered a melting point of 257.9 to 259.6 °C. In addition, the pest or weed control at 100 ppm in data set [1] (setting [2]) fell in the range of 76 to 100%. In addition, the pest or weed control at 100 ppm in data set [1] (setting [3]) was in the range of 76 to 100%.

Consider `Nc1nc(=O)n(C(=O)c2ccccc2F)cc1F` [Compound 16], for which the melting point was in the range of 228.3 to 229.7 °C. The pest or weed control at 100 ppm in data set [1] (setting [2]) was 76 to 100%. For the same molecule, the pest or weed control at 100 ppm in data set [1] (setting [3]) fell in the range of 76 to 100%.

With `Cc1ccc(C(=O)n2cc(F)c(N)nc2=O)cc1` [Compound 17], the melting point is 257 to 259.5 °C. In addition, the pest or weed control at 100 ppm in data set [1] (setting [2]) was 76 to 100%. Moreover, in data set [1] (setting [3]), the pest or weed control at 100 ppm was 76 to 100%.

For `COc1ccc(C(=O)n2cc(F)c(N)nc2=O)cc1OC` [Compound 18], the melting point lay within 170 to 172 °C. For the same molecule, the pest or weed control at 100 ppm in data set [1] (setting [2]) was 76 to 100%. Besides, the pest or weed control at 100 ppm in data set [1] (setting [3]) was in the range of 76 to 100%.

With `Nc1nc(=O)n(C(=O)c2ccsc2)cc1F` [Compound 19], the melting point lay in the range of 223.1 to 225.2 °C. In data set [1] (setting [2]), the pest or weed control at 100 ppm fell in the range of 76 to 100%. Further, the pest or weed control at 100 ppm in data set [1] (setting [3]) lay in the range of 76 to 100%.

`Nc1nc(=O)n(C(=O)c2ccc(F)c(F)c2)cc1F` [Compound 20]: the melting point was in the range of 150 to 152 °C. Also, the pest or weed control at 100 ppm in data set [1] (setting [2]) was in the range of 76 to 100%. The pest or weed control at 100 ppm in data set [1] (setting [3]) lay within 76 to 100%.

In the case of `CC(=O)Nc1nc(=O)n(C(=O)c2ccc(C)cc2)cc1F` [Compound 21, N-(5-fluoro-1-(4-methylbenzoyl)-2-oxo-1,2-dihydropyrimidin-4-yl)acetamide], the melting point was 146.9 to 148.2 °C.

Molecule `CC(=O)Nc1nc(=O)n(C(=O)c2ccccc2)cc1F` [Compound 22] had a melting point of 122.8 to 123.6 °C.

Molecule `CC(=O)Nc1nc(=O)n(C(=O)c2cccc(Cl)c2)cc1F` [Compound 23] showed a melting point of 129.5 to 131 °C.
